Patent US4661487A (priority 1984, dated 1987)
Values joined by “and” are separate entries in the source; they are usually repeats but may differ in a detail not shown here. Equal entries are not always repeated. Structures can show the parent of a compound that is named as a salt.

How the values were obtained:
[1] = system: spontaneously hypertensive rats; assay: Heart rate-modifying action in spontaneously hypertensive rats; assay type: in vivo, spontaneously hypertensive rats (SHR rats)
Experimental: (§1) The substances were administered orally with a probang to fasting spontaneously hypertensive rats. The animals were fasted 17 hours before the start of the experiment. All the substances were dissolved in 1% strength carboxymethylcellulose (MH 300), and the administration volume was 10 ml/kg. The starting values of the blood pressure and heart rate were recorded directly before the administration. The action of the substance was measured 1, 2, 4, 7 and 24 hours after the administration. The measurement was performed non-invasively with a W+W Recorder 8002, it being possible to measure the systolic blood pressure and the heart rate. The animals were offered food again 4 hours after administration of the substance. The values can be seen from Table 1, page 5. […] The experiment was carried out by the same method as in Example 1, and the values can be seen in Table 2.

[2] = system: spontaneously hypertensive rats; assay: Hypotensive action (systolic blood pressure, W+W Recorder 8002) in spontaneously hypertensive rats; assay type: in vivo, spontaneously hypertensive rats (SHR rats)
Experimental: as §1

[3] = system: collagen-induced aggregation of human platelets; assay: Inhibition of collagen-induced aggregation of human platelets in vitro (method of Born, platelet-rich human plasma); assay type: cell-based
Experimental: Inhibition of the collagen-induced aggregation of human platelets by the combination of 4,5-dihydro-6-[4-(1-imidazolyl)-thien-2-yl]-5-methyl-3(2H)-pyridazinone hydrochloride (D) with lofexidine (A).
The inhibition of collagen-induced platelet aggregation in vitro was carried out by the method of Born (Nature, 194, 927-929 (1962)) on platelet-rich human plasma with 4,5-dihydro-6-[4-(1-imidazolyl)-thien-2-yl]-5-methyl-3(2H)-pyridazinone hydrochloride (D), lofexidine (A) and with mixtures of A and D.
In each case the mean value of 4 independent determinations has been given. In the investigations of the mixtures, the concentration of A was constant at 1×10^-5 mole/l.

[4] = peripheral vasodilation; cited from earlier work

In the case of `CC(Oc1c(Cl)cccc1Cl)C1=NCCN1.Cl` (racemic) [Substance A, (±)-2-[1-(2,6-dichlorophenoxy)-ethyl]-1,3-diazacyclopent-2-ene hydrochloride], the “Heart rate, Δ after administration of the substance” value (shortened to “Heart rate, Δ after administration”) ([1]; 0.1 mg/kg p.o., 1 hour) is reported as “+10 ± 13 beats/minute”, the “Heart rate, Δ after administration” value ([1]; 0.1 mg/kg p.o., 2 hours) is reported as “+37 ± 27 beats/minute” and the “Heart rate, Δ after administration” value ([1]; 0.1 mg/kg p.o., 4 hours) is reported as “+12 ± 12 beats/minute”. The “Heart rate, Δ after administration” value ([1]; 0.1 mg/kg p.o., 7 hours) was -14 ± 12 beats/minute, the “Heart rate, Δ after administration” value ([1]; 1.0 mg/kg p.o., 1 hour, hydrochloride) was -22 ± 18 beats/minute and -22 ± 8 beats/minute and the “Heart rate, Δ after administration” value ([1]; 1.0 mg/kg p.o., 2 hours) was -6 ± 13 beats/minute. For the same compound, the “Heart rate, Δ after administration” value ([1]; 1.0 mg/kg p.o., 4 hours) was -2 ± 15 beats/minute, the “Heart rate, Δ after administration” value ([1]; 1.0 mg/kg p.o., 7 hours) was -10 ± 16 beats/minute and the “Systolic blood pressure, Δ after administration of the substance” value (from here on “Systolic blood pressure, Δ”) ([2]; 0.1 mg/kg p.o., 1 hour) was -18.8 ± 16.6 mmHg. The “Systolic blood pressure, Δ” value ([2]; 0.1 mg/kg p.o., 2 hours) was -4.0 ± 18.6 mmHg, the “Systolic blood pressure, Δ” value ([2]; 0.1 mg/kg p.o., 4 hours) was -11.8 ± 23.2 mmHg and the “Systolic blood pressure, Δ” value ([2]; 0.1 mg/kg p.o., 7 hours) was -10.8 ± 26.9 mmHg. For the same compound, the “Systolic blood pressure, Δ” value ([2]; 1.0 mg/kg p.o., 1 hour) was -28.4 ± 13.1 mmHg, the “Systolic blood pressure, Δ” value ([2]; 1.0 mg/kg p.o., 2 hours) was -22.8 ± 11.8 mmHg and the “Systolic blood pressure, Δ” value ([2]; 1.0 mg/kg p.o., 4 hours) was -23.6 ± 15.5 mmHg. The “Systolic blood pressure, Δ” value ([2]; 1.0 mg/kg p.o., 7 hours) was -22.2 ± 17.4 mmHg and the “% inhibition of collagen-induced platelet aggregation” value ([3]; A at 1 × 10^-5 mole/l, D 0, mean of 4 determinations) was 3%.
In the case of `CC1CC(=O)NN=C1c1ccc(-n2ccnc2)cc1` (stereo not drawn) [Substance B, 4,5-dihydro-6-[4-(1-imidazolyl)-phenyl]-5-methyl-3(2H)-pyridazinone], the “Heart rate, Δ after administration” value ([1]; 10.0 mg/kg p.o., 1 hour) is reported as “+113 ± 14 beats/minute”, the “Heart rate, Δ after administration” value ([1]; 10.0 mg/kg p.o., 2 hours) is reported as “+108 ± 10 beats/minute” and the “Heart rate, Δ after administration” value ([1]; 10.0 mg/kg p.o., 4 hours) is reported as “+85 ± 21 beats/minute”. The “Heart rate, Δ after administration” value ([1]; 10.0 mg/kg p.o., 7 hours) was “+129 ± 24 beats/minute”, the “Heart rate, Δ after administration” value ([1]; 10.0 mg/kg p.o., 24 hours) was “+16 ± 16 beats/minute” and the “Systolic blood pressure, Δ” value ([2]; 10.0 mg/kg p.o., 1 hour) was -95.4 ± 3.4 mmHg. For the same compound, the “Systolic blood pressure, Δ” value ([2]; 10.0 mg/kg p.o., 2 hours) was -97.2 ± 4.6 mmHg, the “Systolic blood pressure, Δ” value ([2]; 10.0 mg/kg p.o., 4 hours) was -98.4 ± 5.6 mmHg and the “Systolic blood pressure, Δ” value ([2]; 10.0 mg/kg p.o., 7 hours) was -93.0 ± 5.6 mmHg. For the same compound, the “Systolic blood pressure, Δ” value ([2]; 10.0 mg/kg p.o., 24 hours) was -35.8 ± 6.6 mmHg.
With `CC1CC(=O)NN=C1c1cc(-n2ccnc2)cs1` (stereo not drawn) [Substance C, 4,5-dihydro-6-[4-(1-imidazolyl)-thien-2-yl]-5-methyl-3(2H)-pyridazinone] the “Heart rate, Δ after administration” value ([1]; 10.0 mg/kg p.o., 1 hour) was “+104 ± 21 beats/minute”, the “Heart rate, Δ after administration” value ([1]; 10.0 mg/kg p.o., 2 hours) was “+91 ± 10 beats/minute” and the “Heart rate, Δ after administration” value ([1]; 10.0 mg/kg p.o., 4 hours) was “+70 ± 12 beats/minute”. For the same compound, the “Heart rate, Δ after administration” value ([1]; 10.0 mg/kg p.o., 7 hours) was “+36 ± 13 beats/minute”, the “Systolic blood pressure, Δ” value ([2]; 10.0 mg/kg p.o., 1 hour) was -48.1 ± 16.2 mmHg and the “Systolic blood pressure, Δ” value ([2]; 10.0 mg/kg p.o., 2 hours) was -66.2 9.9 mmHg. The “Systolic blood pressure, Δ” value ([2]; 10.0 mg/kg p.o., 4 hours) was -93.9 ± 6.8 mmHg and the “Systolic blood pressure, Δ” value ([2]; 10.0 mg/kg p.o., 7 hours) was -98.9 ± 9.1 mmHg.
`CC1CC(=O)NN=C1c1cc(-n2ccnc2)cs1` (stereo not drawn) [Substance D, 4,5-dihydro-6-[4-(1-imidazolyl)-thien-2-yl]-5-methyl-3(2H)-pyridazinone hydrochloride] showed an IC50 ([3]; Homo sapiens, Platelet, read-out: concentration for a half-maximum inhibition (IC50) of the collagen-induced platelet aggregation) of 0.046 µM.
In the case of `NNc1nnc(NN)c2ccccc12` [dihydralazine], the “side effect in hypertension therapy” value [4] is listed as “reflex tachycardia”.
In the case of `NNc1nncc2ccccc12` [hydralazine], the “side effect in hypertension therapy” value [4] is listed as “reflex tachycardia”.
For `Nc1cc(N2CCCCC2)nc(N)[n+]1[O-]` [minoxidil], the “side effect in hypertension therapy” value [4] is given as “reflex tachycardia”.
